Assay results: paper PMC11189555, “Aryl amino acetamides prevent Plasmodium falciparum ring development via targeting the lipid-transfer protein PfSTART1” (Nature Communications, 2024)
Where “and” joins values, the source holds several entries; their conditions need not be identical. Equal values may be shown once.

Legend:
ring-stage parasites = assay: Parasite reduction ratio assay; format: cell-based, Plasmodium falciparum
Method: Parasite reduction ratio assay. This was performed as previously described 9,10.
Briefly, asynchronous ring -stage parasites at 0.5% parasitemia and 2% haematocrit were exposed to compounds at 10 x EC50 of growth for five days with daily drug renewal. After each 24 h, a well from each treatment group was taken and washed three times in complete RPMI and final volume adjusted to 2% haematocrit. The washed culture was then aliquoted into a 96 well U-bottom plate and a 1:3 serial dilution into fresh uninfected RBCs was performed with four technical replicates for each time point. Plates were maintained in normal culturing conditions: media was replaced, and fresh RBCs given 1-2 times a week for three weeks, after which parasite growth was measured via lactate dehydrogenase assays. The number of viable parasites was calculated using the formula xn-1 +1, where x is the dilution factor and n is the number of wells that contain parasite growth. The viable parasite value was then expressed in log units and parasite reduction ratio was calculated as a decrease in […]

[1] = tested on: processed PfSTART1 (proc1, proc2) in schizonts; assay: Processing of PfSTART1 along schizogony with egress inhibitors (Western blot densitometry); format: cell-based, Plasmodium falciparum; conditions: for Normalised by EXP2: START full length / Normalised by EXP2: START processed 1 / Normalised by EXP2: START processed 2 / Normalised by EXP2 and full length: START processed 1 / Normalised by EXP2 and full length: START processed 2 / Raw densitometry: START full length / Raw densitometry: START processed 1 / Raw densitometry: START processed 2: biological replicates 1-5
Method: Magnet-purified schizonts were harvested after a 4 h treatment with the following: DMSO (0.1%), 49c (10 nM), C1 (1.5 μM) or E64 (10 μM). Parasites were washed in ice-cold PBS + PI (centrifugation steps carried out at 4 °C at 3,000 g). Samples were resuspended in NRSB, sonicated, boiled 10 min at 80 °C and separated by electrophoresis as explained previously. The parasites used in this experiment were 3D7 transfected with p1.2-ABH(WT)-83-HA-glmS, i.e. parasites containing a recodonised version of PF3D7_0403800 within its genome. […]
(DMSO). Schizonts were saponin -lysed. (E) Synchronised 3D7 schizonts were magnet-purified, stalled at different stages of egress: 4 h with 10 nM 49c (plasmepsin X inhibitor), 1.5 µM compound 1 (C1; PKG inhibitor), 10 µM E64, or allowed to progress (DMSO). Whole cells were harvested. PEXEL-cleaved, and the two further processed forms of PfSTART1 are indicated by solid and empty arrows respectively.
(F) Densitometry of processed PfSTART1 (proc1 and proc2) was normalised to the corresponding PEXEL-cleaved PfSTART1. n=10 replicates (n=6 for the 49c treatment). Two-way ANOVA with Šídák's multiple comparisons test (compare each

[2] = schizonts treated 4 h: 49c 10 nM, C1 1.5 μM, E64 10 μM, vs DMSO and other treatments

Structure (SMILES): CCN(CC)CCCC(C)Nc1ccnc2cc(Cl)ccc12 (stereo not drawn) [CQ, chloroquine, reference compound]
- killing profile (ring-stage parasites; 10xEC50: 75 nM CQ, 60 nM W-991): fast-acting
- PRR (ring-stage parasites; Replicate 1, PRR calculations): 4.528
- log(parasite viability) +1 (ring-stage parasites; Replicate 1, T=1): 2.863
- Parasite viability (ring-stage parasites; Replicate 1, T=1, 1:3 dilution): 729
- log(parasite viability) +1 (ring-stage parasites; Replicate 1, T=2): 0.6021
- Parasite viability (ring-stage parasites; Replicate 1, T=2, 1:3 dilution): 3
- log(parasite viability) +1 (ring-stage parasites; Replicate 1, T=3): 0
- Parasite viability (ring-stage parasites; Replicate 1, T=3, 1:3 dilution): 0
- log(parasite viability) +1 (ring-stage parasites; Replicate 1, T=4): 0
- Parasite viability (ring-stage parasites; Replicate 1, T=4, 1:3 dilution): 0
- log(parasite viability) +1 (ring-stage parasites; Replicate 1, T=5): 0
- Parasite viability (ring-stage parasites; Replicate 1, T=5, 1:3 dilution): 0
- log(parasite viability) +1 used in PRR calculations (ring-stage parasites; Replicate 2, Hours 0): 5.248
- PRR (ring-stage parasites; Replicate 2, PRR calculations): 2.861
- Parasite viability +1 (ring-stage parasites; Replicate 2, T=1): 19684
- log(parasite viability) +1 (ring-stage parasites; Replicate 2, T=1): 4.294
- Parasite viability (ring-stage parasites; Replicate 2, T=1, 1:3 dilution): 19683
- Parasite viability +1 (ring-stage parasites; Replicate 2, T=2): 10
- log(parasite viability) +1 (ring-stage parasites; Replicate 2, T=2): 1
- Parasite viability (ring-stage parasites; Replicate 2, T=2, 1:3 dilution): 9
- Parasite viability +1 (ring-stage parasites; Replicate 2, T=3): 244
- log(parasite viability) +1 (ring-stage parasites; Replicate 2, T=3): 2.387
- Parasite viability (ring-stage parasites; Replicate 2, T=3, 1:3 dilution): 243
- Parasite viability +1 (ring-stage parasites; Replicate 2, T=4): 82
- log(parasite viability) +1 (ring-stage parasites; Replicate 2, T=4): 1.914
- Parasite viability (ring-stage parasites; Replicate 2, T=4, 1:3 dilution): 81
- Parasite viability +1 (ring-stage parasites; Replicate 2, T=5): 1
- log(parasite viability) +1 (ring-stage parasites; Replicate 2, T=5): 0
- Parasite viability (ring-stage parasites; Replicate 2, T=5, 1:3 dilution): 0
- log(parasite viability) +1 (ring-stage parasites; replicate 3, 0 hours, start value (UT T=0) used in PRR calculations): 5.248
- Parasite viability (1:3 dilution) (ring-stage parasites; replicate 3, T=1): 6561
- log(parasite viability) +1 (ring-stage parasites; replicate 3, T=1): 3.817
- Parasite viability (1:3 dilution) (ring-stage parasites; replicate 3, T=2): 9
- log(parasite viability) +1 (ring-stage parasites; replicate 3, T=2 (48 hours in PRR calculations)): 1
- Parasite viability (1:3 dilution) (ring-stage parasites; replicate 3, T=3): 0
- log(parasite viability) +1 (ring-stage parasites; replicate 3, T=3 (72 hours in PRR calculations)): 0
- Parasite viability (1:3 dilution) (ring-stage parasites; replicate 3, T=4): 0
- log(parasite viability) +1 (ring-stage parasites; replicate 3, T=4): 0
- Parasite viability (1:3 dilution) (ring-stage parasites; replicate 3, T=5): 0
- log(parasite viability) +1 (ring-stage parasites; replicate 3, T=5 (120 hours in PRR calculations)): 0
- PRR (ring-stage parasites; replicate 3, difference of log viability over 48 h (CQ 0-48 hours, W991 72-120 hours)): 4.248

Structure (SMILES): CC(C)C[C@H](NC(=O)[C@H]1O[C@@H]1C(=O)O)C(=O)NCCCCN=C(N)N [E64]
- Normalised by EXP2: START full length ([1]; BLOT AMA1, '+' lane): 9.91E+01 and 2.44E+01 and 1.44E+02 and 6.49E+01 and 9.10E+02
- Normalised by EXP2: START processed 1 ([1]; BLOT AMA1, '+' lane): 5.50E+01 and 7.11E+00 and 4.58E+01 and 1.53E+01 and 3.44E+02
- Normalised by EXP2: START processed 2 ([1]; BLOT AMA1, '+' lane): 9.13E+01 and 1.13E+01 and 7.80E+01 and 1.03E+01 and 3.88E+02
- Normalised by EXP2 and full length: START processed 1 ([1]; BLOT AMA1, '+' lane): 5.54E+01 and 2.91E+01 and 3.18E+01 and 2.36E+01 and 3.78E+01
- Normalised by EXP2 and full length: START processed 2 ([1]; BLOT AMA1, '+' lane): 9.21E+01 and 4.63E+01 and 5.42E+01 and 1.59E+01 and 4.26E+01
- Raw densitometry: START full length ([1]; BLOT AMA1, '+' lane): 9.54 and 2.49E+01 and 26.4 and 2.01E+01 and 2.02E+01
- Raw densitometry: START processed 1 ([1]; BLOT AMA1, '+' lane): 2.78 and 7.92E+00 and 6.24 and 7.59E+00 and 1.12E+01
- Raw densitometry: START processed 2 ([1]; BLOT AMA1, '+' lane): 4.42 and 1.35E+01 and 4.19 and 8.56E+00 and 1.86E+01
- Normalised by EXP2: START full length ([1]; BLOT AMA1, '-' lane): 1.05E+02 and 2.53E+01 and 1.75E+02 and 7.60E+01 and 6.88E+02
- Normalised by EXP2: START processed 1 ([1]; BLOT AMA1, '-' lane): 6.93E+01 and 7.41E+00 and 5.19E+01 and 1.82E+01 and 2.72E+02
- Normalised by EXP2: START processed 2 ([1]; BLOT AMA1, '-' lane): 9.19E+01 and 9.39E+00 and 9.29E+01 and 7.65E+00 and 2.73E+02
- Normalised by EXP2 and full length: START processed 1 ([1]; BLOT AMA1, '-' lane): 6.61E+01 and 2.93E+01 and 2.98E+01 and 2.39E+01 and 3.96E+01
- Normalised by EXP2 and full length: START processed 2 ([1]; BLOT AMA1, '-' lane): 8.76E+01 and 3.72E+01 and 5.32E+01 and 1.01E+01 and 3.96E+01
- Raw densitometry: START full length ([1]; BLOT AMA1, '-' lane): 8.29 and 2.80E+01 and 29.3 and 1.80E+01 and 2.42E+01
- Raw densitometry: START processed 1 ([1]; BLOT AMA1, '-' lane): 2.43 and 8.33E+00 and 7.01 and 7.12E+00 and 1.60E+01
- Raw densitometry: START processed 2 ([1]; BLOT AMA1, '-' lane): 3.08 and 1.49E+01 and 2.95 and 7.13E+00 and 2.12E+01
- Normalised by EXP2: START full length ([1]; BLOT Rh5, '+' lane): 7.41E+01 and 1.24E+02 and 2.65E+01 and 1.82E+02 and 1.65E+02
- Normalised by EXP2: START processed 1 ([1]; BLOT Rh5, '+' lane): 5.05E+01 and 4.02E+01 and 7.30E+00 and 3.75E+01 and 7.40E+01
- Normalised by EXP2: START processed 2 ([1]; BLOT Rh5, '+' lane): 7.26E+01 and 3.45E+01 and 1.15E+01 and 3.53E+01 and 8.50E+01
- Normalised by EXP2 and full length: START processed 1 ([1]; BLOT Rh5, '+' lane): 6.81E+01 and 3.26E+01 and 2.75E+01 and 2.05E+01 and 4.47E+01
- Normalised by EXP2 and full length: START processed 2 ([1]; BLOT Rh5, '+' lane): 9.79E+01 and 2.79E+01 and 4.33E+01 and 1.93E+01 and 5.14E+01
- Raw densitometry: START full length ([1]; BLOT Rh5, '+' lane): 12.9 and 1.34E+01 and 3.87E+01 and 2.57E+01 and 1.42E+01
- Raw densitometry: START processed 1 ([1]; BLOT Rh5, '+' lane): 4.2 and 3.69E+00 and 7.95E+00 and 1.15E+01 and 9.67E+00
- Raw densitometry: START processed 2 ([1]; BLOT Rh5, '+' lane): 3.6 and 5.80E+00 and 7.48E+00 and 1.32E+01 and 1.39E+01
- Normalised by EXP2: START full length ([1]; BLOT Rh5, '-' lane): 8.04E+01 and 1.20E+02 and 3.28E+01 and 2.15E+02 and 2.08E+02
- Normalised by EXP2: START processed 1 ([1]; BLOT Rh5, '-' lane): 5.15E+01 and 3.77E+01 and 7.46E+00 and 4.92E+01 and 7.28E+01
- Normalised by EXP2: START processed 2 ([1]; BLOT Rh5, '-' lane): 6.74E+01 and 3.23E+01 and 1.26E+01 and 2.81E+01 and 6.72E+01
- Normalised by EXP2 and full length: START processed 1 ([1]; BLOT Rh5, '-' lane): 6.41E+01 and 3.14E+01 and 2.27E+01 and 2.28E+01 and 3.49E+01
- Normalised by EXP2 and full length: START processed 2 ([1]; BLOT Rh5, '-' lane): 8.38E+01 and 2.69E+01 and 3.85E+01 and 1.30E+01 and 3.22E+01
- Raw densitometry: START full length ([1]; BLOT Rh5, '-' lane): 9.62 and 1.50E+01 and 4.00E+01 and 3.32E+01 and 1.67E+01
- Raw densitometry: START processed 1 ([1]; BLOT Rh5, '-' lane): 3.02 and 3.41E+00 and 9.14E+00 and 1.16E+01 and 1.07E+01
- Raw densitometry: START processed 2 ([1]; BLOT Rh5, '-' lane): 2.59 and 5.78E+00 and 5.21E+00 and 1.07E+01 and 1.40E+01
- level of PfSTART1proc1 normalised to PEXEL-cleaved PfSTART1 [1, 2]: contained most of both processed bands
- level of PfSTART1proc2 normalised to PEXEL-cleaved PfSTART1 [1, 2]: significant enrichment in PfSTART1proc2
